Experiments:
[1] = Release of HNO (headspace gas chromatography of nitrous oxide); conditions: PBS pH 7.4, 37° C., argon, 90 min
Description: Experiment 2. Experimental study on the tested compounds for releasing HNO HNO rapidly dimerizes and dehydrates to produce nitrous oxide in aqueous solution. In the experiment of detecting HNO, gas chromatographic headspace analysis is generally used to determine the amount of the released nitrous oxide, thereby indirectly detect the level of releasing HNO of the compound.
Experimental procedure: Each of the tested compounds was prepared to 20 mg/mL of mother liquor with DMF. Prior to the start of the experiment, 50 μL of drug mother liquor was placed into a 20 mL headspace sample vial. The tested compound was diluted by adding 5 mL of PBS buffer with pH 7.4. The temperature of the resulting sample was kept at 37° C. under argon gas for 90 min. Then the top gas was extracted for gas chromatographic analysis of nitrous oxide by using Angeli's Salt as a positive compound in the experiment.

ApoA-I mRNA = assay: Regulation of ApoA-I mRNA in HepG2 cells (real-time PCR); assay type: cell-based; design: key: Active: When 100 μM of the tested compound allowed ApoA-I mRNA in HepG2 cells to increase more than 15%, then the test compound was known as an ApoA active compound; conditions: 100 μM, 48 h, relative to DMSO control
Description: Experiment 5. Regulation of the Tested Compounds on ApoA-I mRNA HepG2 cells were cultured for 24 h in a 24-well plate with 400 μl of MEM medium containing 0.5% (v/v) of fetal bovine serum. Then each of the tested compounds (100 μM) and the positive control RVX-208 (100 μM) were added. The cells were cultured for another 48 h. The medium was aspirated out. After washing with 200 μl of PBS, 85 μl of cell lysis solution was added into the cells in each well. The cells were incubated at room temperature for 5 to 10 min to be completely dissolved and detached. The mRNA was extracted from the cells with a kit. The extracted mRNA were used for a real-time fluorescence quantitative PCR detection with RNA Fluorescence (RiboGreen) Quantitation Assay Kit and ApoA-I mRNA Primer-Probe Mixture from the company of Applied Biosystems.
After obtaining the Ct values, the induction fold of each test compound relative to DMSO control was calculated. The induction fold was used to reflect the ability of regulating ApoA-I mRNA for the tested compounds. When 100 μM of the tested compound allowed ApoA-I mRNA in HepG2 cells to increase more than 15%, then the test compound was known as an ApoA active compound.

[2] = Plasma stability in vitro, mouse plasma; conditions: CD-1 mice plasma, 2 μM, 37° C., in % (unit assumed)
Description: (§1) Experimental method: The tested compounds (2 μM) were added into mouse or human plasma, and incubated at 37° C. Samples were taken at 0, 10, 30, 60 and 120 min respectively. The reaction was stopped by adding a stop agent. The mixture was sufficient shaken, and centrifuged at 4000 rpm for 10 min at 4° C. The supernatant was taken. The concentrations of the tested compounds and their metabolite (H130) in the supernatant were measured by LC-MS/MS.

[3] = Plasma stability in vitro, human plasma; conditions: for Content of Tested Substance (n = 2): human plasma, 2 μM, 37° C., in % (unit assumed)
Description: as §1

COc1cc(OC)c2c(=O)[nH]c(-c3cc(C)c(OCCOC(=O)ONS(=O)(=O)c4ccc(C)o4)c(C)c3)nc2c1 [Compound H104, N-((2-(4-(5,7-dimethoxy-4-oxo-3,4-dihydroquinazolin-2-yl)-2,6-dimethylphenoxy)ethoxy)carbonyloxy)-5-methylfuran-2-sulfonamide]
Molar Quantities of N2O/Sample [1]: 23.6%
Upregulation of Apoa-I Mrna Level (ApoA-I mRNA): Active
Content of Tested Substance (n = 2) ([2]; 0 min): 100.0
Content of Tested Substance (n = 2) ([2]; 10 min): 0.5
Content of Tested Substance (n = 2) ([2]; 30 min): 0.0
Content of Tested Substance (n = 2) ([2]; 60 min): 0.0
Content of Tested Substance (n = 2) ([2]; 120 min): 0.3
Content of Tested Substance (n = 2) ([3]; 0 min): 100.0
Content of Tested Substance (n = 2) ([3]; 10 min): 99.5
Content of Tested Substance (n = 2) ([3]; 30 min): 88.7
Content of Tested Substance (n = 2) ([3]; 60 min): 81.1
Content of Tested Substance (n = 2) ([3]; 120 min): 75.8
stability in human plasma ([3]; within 2 h): good stability

Reference: patent US10456405B2, “Nitric oxide-releasing prodrug molecule of substituted quinazolines” (ZHEJIANG HUAHAI PHARMACEUTICAL CO., LTD, priority 2015, dated 2019)
